Data on ten molecules can be found in US7795207B2, “Lipopeptide compositions” (priority 2005, dated 2010).

The test system of one series is fresh venal human blood. To be noted: for Reduction of the hemolysis in %: lipopeptide 1,600 mg/l in presence of 2.5% SBE-β-CD.
The test system of another series is canine blood. Nature of the series: Hemolysis test with venal canine blood. To be noted: molar ratio SBE-β-CD:friulimicin B 2.5:1. It counts as cell-based.
The subject of series [1] is Staphylococcus aureus ATCC 29213. In words: Minimum inhibitory concentration (agar dilution, CLSI). It counts as cell-based. As to the method: (§1) The effects of cyclodextrins on the antibiotic activity von Ca2Cl2 friulimicin B were investigated by in vitro experiments about the growth inhibition of Gram-positive bacteria. Herein, the minimum inhibitory concentration for the growth inhibition was determined by cultivation of the bacteria on nutritious agar (agar dilution) according to the CLSI (previously NCCLS) rules (National Committee for Clinical Laboratory Standards. 2003. Methods for dilution antimicrobial susceptibility tests for bacteria that grow aerobically; approved standard—6th ed. Document M7-A6. Clinical and Laboratory Standards Institute, Wayne, Pa., USA). Different molar mixture ratios of the lipopeptide Ca2Cl2 friulimicin B were tested with SBE-β-CD in Ca ions-adjusted Müller-Hinton medium. The Gram-positive strains tested for the cultivation methods were: • Staphylococcus carnosus ATCC 51365 {DSM 20501) • Staphylococcus aureus ATCC 29213 (DSM 2569) • Staphylococcus aureus ATCC 33592 (DSM 11729) • Staphylococcus epidermidis ATCC 12228 (DSM 1798)

Series [2] deals with Staphylococcus aureus ATCC 33592. Described as above. Format: cell-based. As to the method:
as §1

Series [3] relates to Staphylococcus carnosus ATCC 51365. Described as above. Format: cell-based. The protocol: as §1
The subject of series [4] is Staphylococcus epidermidis ATCC 12228. The description is as above. It counts as cell-based. The protocol: as §1
Series [5] has as its system Streptococcus pneumoniae L3TV. Nature of the series: Intranasal lung infection model in the mouse. It counts as in vivo. To be noted: mice, total dose 20 mg/kg subcutaneously 1 and 4 hours after infection; SBE-β-CD:friulimicin B 2.5:1; Mann Whitney Test p=0.0159. The protocol: Herein, Ca2Cl2 friulimicin B serves as an example molecule for the antibiotics of the class of the lipopeptides and sulfobutylether-β-cyclodextrin (SBE-β-CD) as examples for modified β-cyclodextrins. Shown are the results of a study with an intranasal lung infection model in the mouse.
Female mice (CFW-1 (Harlan Winkelmann, Germany)) were infected intranasally with Streptococcus pneumoniae L3TV (1*10^6 CFU/mouse). 1 and 4 hours after the infection, the animals were subcutaneously administered a total dose of 20 mg Ca2Cl2 friulimicin B/kg with and without SBE-BCD (5%). 24-hours after the infection, a determination of the number of germs in the lung was performed by plating-out of a tissue disintegration on agar plates in a manner the person skilled in the art is familiar with.

In a further series the test system is Female mice (CFW-1). In words: Acute toxicity in mice after one-time iv administration. It counts as in vivo. The protocol: Female mice (CFW-1 (Harlan Winkelmann, Germany)) were administered once (iv) the Ca2Cl2 friulimicin B solutions with and without SBE-β-CD. The mortality rate of the animals within 24 hours was determined.
Another series deals with E. faecalis ATCC 29212. In words: Minimum inhibitory concentration in presence of HSA. It counts as cell-based, Enterococcus faecalis.
The conditions of series [6]: literature (Oleson et al. 2000); cited from earlier work.
The conditions of series [7]: literature; cited from earlier work.
Setting [8] is: molar ratio Friulimicin:SBE-β-CD 1:0.
[9] abbreviates: molar ratio Friulimicin:SBE-β-CD 1:2.5.
Where [10] appears, read: molar ratio Friulimicin:SBE-β-CD 1:4.

Converted amounts (≈) assume the structure as drawn. Some results are limits rather than exact numbers.

Method for canine blood: Ca2Cl2 friulimicin B was dissolved in 0.9% NaCl solution with and without addition of SBE-β-CD. In the batch with SBE-β-CD there was a molar ratio (SBE-β-CD:friulimicin B) of 2.5:1. […] Statements of the content of Ca2Cl2 friulimicin B (in mg/l) refer to the final concentrations of the free acid of the friulimicin B in the reaction batch. The statements of the molar ratio refer to the free acids of friulimicin B and SBE-β-CD, respectively.

In the case of `CCC(C)CCCCCC=CCC(=O)NC(CC(=O)O)C(=O)NC1C(=O)N2CCCCC2C(=O)NC(C(C)C(=O)O)C(=O)NC(CC(=O)O)C(=O)NCC(=O)NC(CC(=O)O)C(=O)NCC(=O)NC(C(C)N)C(=O)NC(C(C)C)C(=O)N2CCCC2C(=O)NC1C` (stereo not drawn) [Amphomycin, reference compound], the “Reduction of the hemolysis in %” value in the series with fresh venal human blood was 99.6%.

As to `CCCCCCCCCCCCCCCCCC(=O)NC(CC(N)=O)C(=O)NC1C(=O)N2CCCCC2C(=O)NC(C(C)C(=O)O)C(=O)NC(CC(=O)O)C(=O)NCC(=O)NC(CC(=O)O)C(=O)NCC(=O)NC(C(C)N)C(=O)NC(C(C)C)C(=O)N2CCCC2C(=O)NC1C` (stereo not drawn) [CBS000203], the “Reduction of the hemolysis in %” value in the series on fresh venal human blood amounted to 41.3%.

For `CCCCC/C=C\C/C=C\C/C=C\CCCCC(=O)NC(CC(N)=O)C(=O)NC1C(=O)N2CCCCC2C(=O)NC(C(C)C(=O)O)C(=O)NC(CC(=O)O)C(=O)NCC(=O)NC(CC(=O)O)C(=O)NCC(=O)NC(C(C)N)C(=O)NC(C(C)C)C(=O)N2CCCC2C(=O)NC1C` (stereo not drawn) [CBS000204], the “Reduction of the hemolysis in %” value with fresh venal human blood is 87.0%.

Regarding `CC(C)C1NC(=O)C(C(C)N)NC(=O)CNC(=O)C(CC(=O)O)NC(=O)CNC(=O)C(CC(=O)O)NC(=O)C(C(C)C(=O)O)NC(=O)C2CCCCN2C(=O)C(NC(=O)C(CC(N)=O)NC(=O)c2ccc(CCc3ccc(CCc4ccccc4)cc3)cc2)C(C)NC(=O)C2CCCN2C1=O` (stereo not drawn) [CBS000217], the “Reduction of the hemolysis in %” value with fresh venal human blood is recorded as 99.5%.

As for `CC(C)CCCCCCC/C=C\CC(=O)N[C@@H](CC(N)=O)C(=O)N[C@@H]1C(=O)N2CCCC[C@@H]2C(=O)N[C@@H]([C@H](C)C(=O)O)C(=O)N[C@@H](CC(=O)O)C(=O)NCC(=O)N[C@@H](CC(=O)O)C(=O)NCC(=O)N[C@H]([C@H](C)N)C(=O)N[C@@H](C(C)C)C(=O)N2CCC[C@H]2C(=O)N[C@@H]1C` [Ca2Cl2 friulimicin B, friulimicin B], the figures for the “Reduction of the hemolysis by the addition of SBE-β-CD” value in the series on canine blood (friulimicin B 800 mg/l) and with canine blood (friulimicin B 5,000 mg/l) were 55% and 100%, respectively. For the same molecule, the “Antibiotic activity (MIC)” value in series [1] (setting [8]) was determined as 0.5 µg/mL; in series [1] (setting [9]) it was 0.5 µg/mL; in [1] (setting [10]), 0.5 µg/mL; in series [2] (setting [8]), 1 µg/mL; in series [2] (setting [9]), 1 µg/mL; in series [2] (setting [10]), 1 µg/mL. Moreover, the “Antibiotic activity (MIC)” value in series [3] (setting [8]), in [3] (setting [9]), in series [3] (setting [10]), in series [4] (setting [8]), in series [4] (setting [9]) and in series [4] (setting [10]) was 0.5 µg/mL in each case. The “Antibiotic effect (number of germs in the lung 24 hours after infection), with vs without SBE-β-CD” value in series [5] is reported as “increases the antibiotic effect”. Moreover, the “Mortality rate within 24 hours” value in the series on Female mice (CFW-1) (300 mg/kg iv once, with addition of SBE-β-CD (molar ratio 2.5:1)) is recorded as 0% (0/3); in the series with Female mice (CFW-1) (300 mg/kg iv once, without addition of SBE-β-CD), 0% (0/3); in the series with Female mice (CFW-1) (350 mg/kg iv once, without addition of SBE-β-CD), 66% (2/3); in the series on Female mice (CFW-1) (400 mg/kg iv once, with addition of SBE-β-CD (molar ratio 2.5:1)), 0% (0/3); in the series on Female mice (CFW-1) (400 mg/kg iv once, without addition of SBE-β-CD), 100% (3/3). In the series with fresh venal human blood, the “Effect of HP-β-CD on the induced hemolysis” value was “suppress”.

With `CC(C)CCCCCCC/C=C\CC(=O)N[C@@H](CC(N)=O)C(=O)N[C@@H]1C(=O)N2CCCC[C@@H]2C(=O)N[C@@H]([C@H](C)C(=O)O)C(=O)N[C@@H](CC(=O)O)C(=O)NCC(=O)N[C@@H](CC(=O)O)C(=O)NCC(=O)N[C@H]([C@H](C)N)C(=O)N[C@@H](C(C)C)C(=O)N2CCC[C@H]2C(=O)N[C@@H]1C` [Na2 friulimicin B, friulimicin B], the MIC value in series [1] (medium addition 0% HSA) was 2 µg/mL (≈ 1.53 µM); in [1] (medium addition 4% HSA), 8 µg/mL (≈ 6.14 µM); in the series on E. faecalis ATCC 29212 (medium addition 0% HSA), 4 µg/mL; in the series with E. faecalis ATCC 29212 (medium addition 4% HSA) it was more than 64 µg/mL.

On to `CCCCCCCCCC(=O)N[C@@H](Cc1c[nH]c2ccccc12)C(=O)N[C@H](CC(N)=O)C(=O)N[C@@H](CC(=O)O)C(=O)N[C@@H]1C(=O)NCC(=O)N[C@@H](CCCN)C(=O)N[C@@H](CC(=O)O)C(=O)N[C@H](C)C(=O)N[C@@H](CC(=O)O)C(=O)NCC(=O)N[C@H](CO)C(=O)N[C@@H]([C@H](C)CC(=O)O)C(=O)N[C@@H](CC(=O)c2ccccc2N)C(=O)O[C@@H]1C` [daptomycin], for which the “Toxicity on the skeletal muscle” value in [6] is “damages the skeletal muscle”.

iturin A: in [7], the Hemolytic action result is given as “act in a hemolytic manner”.

As for lichenysin, the Hemolytic action entry in [7] is recorded as “act in a hemolytic manner”.

With surfactin A, the Hemolytic action result in [7] is “act in a hemolytic manner”.
